Experimental data from ChEMBL document CHEMBL1201862, “PubChem BioAssay data set” (2004).
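Results reflect a 48-hour exposure of cells in 96-well plates to compound at five concentrations. GI50 is the concentration that inhibits growth by half.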 Active and inactive are the calls of the source. Rule as the data show it: active = GI50 up to about 1.1 µM and inactive = higher.

Tests used:
Experiment in all cases: NCI anticancer screen, dose series, 48 h
COLO 205 = tested on: COLO 205
HCT-15 = tested on: HCT-15
HL-60 = tested on: HL-60
HOP-18 = tested on: HOP-18
HOP-62 = tested on: HOP-62
HOP-92 = tested on: HOP-92
HT-29 = tested on: HT-29
K562 = tested on: K562
LOX IMVI = tested on: LOX IMVI
MOLT-4 = tested on: MOLT-4
Malme-3M = tested on: Malme-3M
NCI-H23 = tested on: NCI-H23
OVCAR-8 = tested on: OVCAR-8
RPMI-8226 = tested on: RPMI-8226
SNB-75 = tested on: SNB-75
U-251 = tested on: U-251
UO-31 = tested on: UO-31
BT-549 = tested on: BT-549
OVCAR-4 = tested on: OVCAR-4
T47D = tested on: T47D

| SMILES | GI50 (COLO 205) | GI50 (HCT-15) | GI50 (HL-60) | GI50 (HOP-18) | GI50 (HOP-62) | GI50 (HOP-92) | GI50 (HT-29) | GI50 (K562) | GI50 (LOX IMVI) | GI50 (MOLT-4) | GI50 (Malme-3M) | GI50 (NCI-H23) | GI50 (OVCAR-8) | GI50 (RPMI-8226) | GI50 (SNB-75) | GI50 (U-251) | GI50 (UO-31) | GI50 (BT-549) | GI50 (OVCAR-4) | GI50 (T47D) |
| --- | --- | --- | --- | --- | --- | --- | --- | --- | --- | --- | --- | --- | --- | --- | --- | --- | --- | --- | --- | --- |
| Cc1nc(-n2nc(-c3ccccc3)cc2-c2ccccc2)sc1C(=O)/C=C/c1cccc([N+](=O)[O-])c1 | 17 µM (inactive) | 16.8 µM | 12.2 µM (inactive) | 12.1 µM (inactive) | 15.9 µM (inactive) | 22.9 µM (inactive) | 12.7 µM (inactive) | 8.75 µM (inactive) | 11.2 µM (inactive) | 6.04 µM (inactive) | 19.2 µM (inactive) | 17.2 µM (inactive) | 28.4 µM (inactive) | 4.76 µM (inactive) | 5.73 µM (inactive) | 15.2 µM (inactive) | 11.6 µM (inactive) | – | – | – |
| CN(C)C(=S)NC(=S)Nc1ccc2ccccc2c1 | 13.7 µM (inactive) | 9.89 µM | 5.69 µM (inactive) | – | 18.4 µM (inactive) | 17 µM (inactive) | 12 µM (inactive) | 2.65 µM (inactive) | 6.64 µM (inactive) | 4.93 µM (inactive) | 13.8 µM (inactive) | 9.64 µM (inactive) | 9.64 µM (inactive) | 5.56 µM (inactive) | 24.3 µM (inactive) | 11.6 µM (inactive) | 16.1 µM (inactive) | 16 µM (inactive) | 24.7 µM (inactive) | 9.55 µM (inactive) |
| Cc1ccc(C)c2c1C1CCCCC3(OCCCO3)C21O (stereo unspecified) | > 100 µM (inactive) | > 100 µM | > 100 µM (inactive) | 17.1 µM (inactive) | > 100 µM (inactive) | – | > 100 µM (inactive) | > 100 µM (inactive) | > 100 µM (inactive) | > 100 µM (inactive) | > 100 µM (inactive) | > 100 µM (inactive) | > 100 µM (inactive) | > 100 µM (inactive) | 31.7 µM (inactive) | > 100 µM (inactive) | > 100 µM (inactive) | – | > 100 µM (inactive) | – |
| CN(C)C(=O)Oc1c(-c2ccccc2)c(=O)n2c3ccccc3n3c(=O)n(C)c(=O)c1c23 | > 100 µM (inactive) | > 100 µM | – | > 100 µM (inactive) | > 100 µM (inactive) | > 100 µM (inactive) | > 100 µM (inactive) | – | > 100 µM (inactive) | > 100 µM (inactive) | > 100 µM (inactive) | > 100 µM (inactive) | > 100 µM (inactive) | > 100 µM (inactive) | 72.3 µM (inactive) | > 100 µM (inactive) | > 100 µM (inactive) | – | > 100 µM (inactive) | – |
| C/C(=N\NC(=O)CC(=O)Nc1ccc(C)cc1)c1cc2ccccc2oc1=O | > 100 µM (inactive) | > 100 µM | > 100 µM (inactive) | 68.2 µM (inactive) | > 100 µM (inactive) | – | > 100 µM (inactive) | > 100 µM (inactive) | > 100 µM (inactive) | > 100 µM (inactive) | 38.3 µM (inactive) | > 100 µM (inactive) | > 100 µM (inactive) | > 100 µM (inactive) | 20.2 µM (inactive) | > 100 µM (inactive) | > 100 µM (inactive) | – | – | – |
| CCOC(=O)/C=C(/C(=O)OCC)n1ccc(=O)n(Cc2cnnn2COCCOC(C)=O)c1=O | 2.92 µM (inactive) | 8.77 µM | 0.018 µM (active) | – | > 73.1 µM (inactive) | 2.08 µM (inactive) | 17.5 µM (inactive) | 4.05 µM (inactive) | 17.1 µM (inactive) | 4.51 µM (inactive) | 12.5 µM (inactive) | 17.1 µM (inactive) | 16.6 µM (inactive) | 10.9 µM (inactive) | 41.2 µM (inactive) | 17.9 µM (inactive) | 16 µM (inactive) | 19.5 µM (inactive) | 20 µM (inactive) | 9.57 µM (inactive) |
| O=c1sc(-c2nc3ccccc3[nH]2)c(/N=C/c2ccccc2)n1-c1ccccc1 | 56.4 µM (inactive) | 74.1 µM | > 100 µM (inactive) | 67 µM (inactive) | 27.9 µM (inactive) | – | > 100 µM (inactive) | 75 µM (inactive) | 40.3 µM (inactive) | > 100 µM (inactive) | 92.7 µM (inactive) | > 100 µM (inactive) | 35.6 µM (inactive) | > 100 µM (inactive) | 21.6 µM (inactive) | 68.7 µM (inactive) | > 100 µM (inactive) | – | 6.12 µM (inactive) | – |
| O=C1Cc2nc(CO)c(CO)c(CO)c2CO1 | > 100 µM (inactive) | > 100 µM | > 100 µM (inactive) | > 100 µM (inactive) | > 100 µM (inactive) | > 100 µM (inactive) | > 100 µM (inactive) | > 100 µM (inactive) | > 100 µM (inactive) | – | > 100 µM (inactive) | > 100 µM (inactive) | > 100 µM (inactive) | > 100 µM (inactive) | > 100 µM (inactive) | > 100 µM (inactive) | > 100 µM (inactive) | – | – | – |
| CC(=O)c1ccc(N2C(=O)C3c4[nH]c5ccccc5c4C4CCC(C(C)(C)C)CC4C3C2=O)cc1 (stereo unspecified) | 15.2 µM (inactive) | 29.3 µM | 27.1 µM (inactive) | 91.6 µM (inactive) | 19.5 µM (inactive) | 20.8 µM (inactive) | 17.3 µM (inactive) | 35.7 µM (inactive) | – | 30.1 µM (inactive) | 16.7 µM (inactive) | 19.2 µM (inactive) | 22.4 µM (inactive) | 23.3 µM (inactive) | 22.6 µM (inactive) | 19.5 µM (inactive) | 43.5 µM (inactive) | – | 30.9 µM (inactive) | – |
| O=C(/C=C/c1ccco1)N1CCN(Cc2ccccc2)CC1 | – | > 100 µM | > 100 µM (inactive) | > 100 µM (inactive) | > 100 µM (inactive) | > 100 µM (inactive) | > 100 µM (inactive) | – | > 100 µM (inactive) | > 100 µM (inactive) | – | > 100 µM (inactive) | > 100 µM (inactive) | > 100 µM (inactive) | > 100 µM (inactive) | > 100 µM (inactive) | 96.8 µM (inactive) | – | > 100 µM (inactive) | – |
| O=C(COc1ccc(Br)cc1Br)N1N=C(c2ccc([N+](=O)[O-])o2)CC1(O)c1ccccc1 (stereo unspecified) | 2.7 µM (inactive) | 6.19 µM | 3.12 µM (inactive) | 8.75 µM (inactive) | 13.2 µM (inactive) | – | 13.4 µM (inactive) | 4.7 µM (inactive) | 5.47 µM (inactive) | 2.64 µM (inactive) | 10.7 µM (inactive) | 12.4 µM (inactive) | 9.89 µM (inactive) | 2.11 µM (inactive) | 14.1 µM (inactive) | 8.73 µM (inactive) | 5.36 µM (inactive) | – | 17 µM (inactive) | – |
| OC1(C(F)(F)F)OCCN=C1C(F)(F)F (stereo unspecified) | > 100 µM (inactive) | 64.4 µM | 37.7 µM (inactive) | – | > 100 µM (inactive) | 60.5 µM (inactive) | > 100 µM (inactive) | > 100 µM (inactive) | > 100 µM (inactive) | 69.8 µM (inactive) | 24.8 µM (inactive) | > 100 µM (inactive) | 53.5 µM (inactive) | > 100 µM (inactive) | > 100 µM (inactive) | > 100 µM (inactive) | > 100 µM (inactive) | 56.2 µM (inactive) | > 100 µM (inactive) | > 100 µM (inactive) |
| Cn1c2c(c3ccccc31)C1CCCCCCC1C1C(=O)OC(=O)C21 (stereo unspecified) | 40.6 µM (inactive) | 30.2 µM | 30.8 µM (inactive) | > 100 µM (inactive) | – | – | 30.1 µM (inactive) | 31.3 µM (inactive) | 22.8 µM (inactive) | 24.8 µM (inactive) | 11.9 µM (inactive) | 69.7 µM (inactive) | 31.9 µM (inactive) | 23.1 µM (inactive) | 30.3 µM (inactive) | 37.9 µM (inactive) | > 100 µM (inactive) | – | 53.8 µM (inactive) | – |
| CC(=O)OCc1ccc2oc(=O)c(C(=O)Oc3ccccc3)cc2c1 | 30.4 µM (inactive) | 19.5 µM | 52.1 µM (inactive) | – | > 100 µM (inactive) | 20.3 µM (inactive) | 30.1 µM (inactive) | 3.72 µM (inactive) | > 100 µM (inactive) | > 100 µM (inactive) | > 100 µM (inactive) | 32.6 µM (inactive) | > 100 µM (inactive) | > 100 µM (inactive) | > 100 µM (inactive) | > 100 µM (inactive) | 35.2 µM (inactive) | > 100 µM (inactive) | > 100 µM (inactive) | 17.6 µM (inactive) |
| NC1CC(=O)c2csc(Br)c21 (stereo unspecified) | 16.5 µM (inactive) | 7.71 µM | 4.39 µM (inactive) | – | 24.4 µM (inactive) | 9.89 µM (inactive) | 19.6 µM (inactive) | 5.97 µM (inactive) | 15.6 µM (inactive) | 15.1 µM (inactive) | 17.2 µM (inactive) | 17.1 µM (inactive) | 16.6 µM (inactive) | 4.82 µM (inactive) | 23.1 µM (inactive) | 18.1 µM (inactive) | 16 µM (inactive) | 11.8 µM (inactive) | 16.5 µM (inactive) | 24 µM (inactive) |
| CC1C(=O)O[C@H]2C1CC[C@@]1(C)[C@H](O)CC[C@@]13C[C@]2(O)OO3 (stereo partly specified) | > 100 µM (inactive) | > 100 µM | > 100 µM (inactive) | > 100 µM (inactive) | > 100 µM (inactive) | > 100 µM (inactive) | > 100 µM (inactive) | > 100 µM (inactive) | > 100 µM (inactive) | > 100 µM (inactive) | > 100 µM (inactive) | > 100 µM (inactive) | > 100 µM (inactive) | > 100 µM (inactive) | – | > 100 µM (inactive) | > 100 µM (inactive) | – | > 100 µM (inactive) | – |
